Data taken from article PMC5887109, “Unravelling the Molecular Determinants of Bee Sensitivity to Neonicotinoid Insecticides” (Current Biology, 2018).

Legend:
[1] = target: T1, CYP9Q1 (Apis mellifera, UniProt A0A7M7GTV9); assay: Activity of recombinant CYP9Q1 against fluorescent coumarin model substrates; format: biochemical, A. mellifera
Description: (§1) The activity of individual A. mellifera and B. terrestris recombinant P450s were tested against seven fluorescent model substrates (all purchased from Sigma); 7-methoxy-coumarin (MC), 7-Methoxy-4-(tri-fluoromethyl)-coumarin (MFC), 7-ethoxy-coumarin (EC), 7-benzyloxy-4-(trifluoromethyl)-coumarin (BFC), 7-ethoxy-4-trifluoro-methylcoumarin (EFC), 7-benzyloxymethoxy-4-trifluoromethyl coumarin (BOMFC), and 7-p-methoxy-benzyloxy-4-trifluoro coumarin (MOBFC). Assays were carried out in black flat-bottomed 96-well plates in a 100 μL reaction containing 2 pmol of P450 per 50 μg of protein (B. terrestris) or 50 μg/well (A. mellifera), 1 mM of NADPH (Sigma) and […] of a model substrate (Sigma). […] Data were recorded using a SpectraMax Gemini XPS (B. terrestris) or a SpectraMax M2 (A. mellifera) at the excitation/emission wavelength suitable for each model substrate (MC, EC at 390-465, BFC, MFC at 410-535, EFC at 410-510 and BOMFC and MOBFC at 405-510 nm). […] The reactions were incubated at 25°C (B. terrestris) or 30°C (A. mellifera) for a further 15 min and the data were recorded at the required excitation/emission wavelengths stated above. […] The florescence was measured as above at the corresponding wavelengths for each model substrate. […] This was then subtracted from the average fluorescence measurement of each P450 along with the average control measurements.

[2] = tested on: CYP9Q5; assay: Activity of recombinant CYP9Q5 against fluorescent coumarin model substrates; format: biochemical, B. terrestris
Description: as §1

[3] = target: T2, CYP9Q4 (Bombus terrestris, UniProt A0A9B0BBT5); assay: Activity of recombinant CYP9Q4 against fluorescent coumarin model substrates; format: biochemical, B. terrestris
T2 sequence (A0A9B0BBT5 entry or part of it, one chain of several): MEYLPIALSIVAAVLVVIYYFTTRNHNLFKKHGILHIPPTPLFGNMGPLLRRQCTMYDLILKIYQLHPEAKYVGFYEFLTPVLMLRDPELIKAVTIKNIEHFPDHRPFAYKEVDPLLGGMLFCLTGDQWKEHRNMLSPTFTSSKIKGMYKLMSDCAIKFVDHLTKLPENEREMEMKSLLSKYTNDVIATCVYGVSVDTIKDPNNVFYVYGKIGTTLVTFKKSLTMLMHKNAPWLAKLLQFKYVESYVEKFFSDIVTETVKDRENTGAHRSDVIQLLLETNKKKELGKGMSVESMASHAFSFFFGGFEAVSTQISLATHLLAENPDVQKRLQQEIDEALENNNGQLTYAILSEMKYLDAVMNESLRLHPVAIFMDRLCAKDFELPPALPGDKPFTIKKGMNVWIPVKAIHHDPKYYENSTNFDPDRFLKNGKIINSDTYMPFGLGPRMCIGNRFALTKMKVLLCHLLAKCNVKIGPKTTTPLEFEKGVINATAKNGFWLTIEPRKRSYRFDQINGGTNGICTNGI
Description: The activity of individual A. mellifera and B. terrestris recombinant P450s were tested against seven fluorescent model substrates (all purchased from Sigma); 7-methoxy-coumarin (MC), 7-Methoxy-4-(tri-fluoromethyl)-coumarin (MFC), 7-ethoxy-coumarin (EC), 7-benzyloxy-4-(trifluoromethyl)-coumarin (BFC), 7-ethoxy-4-trifluoro-methylcoumarin (EFC), 7-benzyloxymethoxy-4-trifluoromethyl coumarin (BOMFC), and 7-p-methoxy-benzyloxy-4-trifluoro coumarin (MOBFC). Assays were carried out in black flat-bottomed 96-well plates in a 100 μL reaction containing 2 pmol of P450 per 50 μg of protein (B. terrestris) or 50 μg/well (A. mellifera), 1 mM of NADPH (Sigma) and […] of a model substrate (Sigma). Three replicates were carried out for each data point. P450s incubated without NADPH and wells containing only potassium phosphate buffer served as controls. Samples were incubated at 25°C for 45 min (B. terrestris) or 30°C for 30 min (A. mellifera). Data were recorded using a SpectraMax Gemini XPS (B. terrestris) or a SpectraMax M2 (A. mellifera) at the excitation/emission wavelength suitable for each model substrate (MC, EC at 390-465, BFC, MFC at 410-535, EFC at 410-510 and BOMFC and MOBFC at 405-510 nm). As these substrates have a similar emission wavelength to NADPH (460 nm) the reaction was terminated prior to measurement by the addition of 100μL of a stop solution (25% DMSO, 0.05 M Tris/HCL pH10, 5 mM glutathione oxidised, and 0.2 U glutathione reductase). The reactions were incubated at 25°C (B. terrestris) or 30°C (A. mellifera) for a further 15 min and the data were recorded at the required excitation/emission wavelengths stated above. 7-hydroxy-4-(trifluoromethyl)-coumarin (HFC) (Sigma) was used to generate a standard curve for model substrates BFC, EFC, MFC, MOBFC, and BOMFC and 7-hydroxycoumarin (HC) (Sigma) for model substrates EC and MC. […] The florescence was measured as above at the corresponding wavelengths for each model substrate. […] This was then subtracted from the average fluorescence measurement of each P450 along with the average control measurements.

[4] = target: T3, CYP9Q3 (Apis mellifera, UniProt A0A7M7LMV1); assay: Activity of recombinant CYP9Q3 against fluorescent coumarin model substrates; format: biochemical, A. mellifera
T3 sequence (A0A7M7LMV1 entry or part of it, one chain of several): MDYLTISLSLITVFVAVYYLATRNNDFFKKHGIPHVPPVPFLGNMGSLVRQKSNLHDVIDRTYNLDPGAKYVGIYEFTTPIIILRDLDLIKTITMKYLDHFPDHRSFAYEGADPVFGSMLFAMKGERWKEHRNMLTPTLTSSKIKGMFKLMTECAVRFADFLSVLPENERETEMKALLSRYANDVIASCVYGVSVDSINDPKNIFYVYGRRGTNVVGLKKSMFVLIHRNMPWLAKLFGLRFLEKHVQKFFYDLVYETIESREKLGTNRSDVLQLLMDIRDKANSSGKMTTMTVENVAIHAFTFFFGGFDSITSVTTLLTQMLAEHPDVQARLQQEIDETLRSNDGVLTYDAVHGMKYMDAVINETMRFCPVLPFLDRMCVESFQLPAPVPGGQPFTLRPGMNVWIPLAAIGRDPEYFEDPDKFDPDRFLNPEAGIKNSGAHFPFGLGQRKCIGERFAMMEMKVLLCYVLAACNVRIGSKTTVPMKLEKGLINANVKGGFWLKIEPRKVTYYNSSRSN
Description: as §1

[5] = target: T2, CYP9Q4; assay: Metabolism by recombinant CYP9Q4/CPR microsomes, LC-MS/MS; conditions: hydroxylation (thiacloprid) or N-desmethylation (acetamiprid)
Description: (§2) All bee P450 (see Table S3 for accession numbers) and house fly NADPH-dependent cytochrome P450 reductase (CPR) (GenBank accession number Q07994) genes were obtained by gene synthesis (Geneart, CA, USA) and inserted into the pDEST8 expression vector (Invitrogen). Codon optimization of all bee genes was used to optimize expression in lepidopteran cell lines. The PFastbac1 vector with no inserted DNA was used to produce a control virus. The recombinant baculovirus DNA was constructed and transfected into Trichoplusia ni (High five cells, Thermo Fisher) using the Bac-to-Bac baculovirus expression system (Invitrogen) according to the manufacturer’s instructions. The titer of the recombinant virus was determined following protocols of the supplier. High Five cells grown to a density of 2 × 10^6 cells ml^-1 were co-infected with recombinant baculoviruses containing each bee P450 and CPR with a range of MOI (multiplicity of infection) ratios to identify the optimal conditions. Control cells were co-infected with the baculovirus containing vector with no insert (ctrl-virus) and the recombinant baculovirus expressing CPR using the same MOI ratios. Ferric citrate and δ-aminolevulinic acid hydrochloride were added to a final concentration of 0.1 mM at the time of infection and 24 h after infection to compensate the low levels of endogenous heme in the insect cells. After 48 h, cells were harvested, washed with PBS, and microsomes of the membrane fraction prepared according to standard procedures and stored at −80°C [31]. Briefly, pellets were homogenized for 30 s in 0.1M Na/K-phosphate buffer, pH 7.4 containing 1mM EDTA and DTT and 200mM sucrose using a Fastprep (MP Biomedicals), filtered through miracloth and centrifuging for 10 min at 680 g at 4°C. The supernatant was then centrifuged for 1 h at 100,000 g at 4°C, with the pellet subsequently resuspended in 0.1M Na/K-phosphate buffer, pH 7.6 containing 1mM EDTA and DTT and 10% glycerol using a Dounce tissue grinder. P450 expression and functionality was estimated by measuring CO-difference spectra in reduced samples using a Specord 200 Plus Spectrophotometer (Analytik Jena) and scanning from 500 nm to 400 nm. The protein content of samples was determined using Bradford reagent (Sigma) and bovine serum albumin (BSA) as a reference.
(§3) The total assay volume was 200 μL using three replicates for each data point. […] The assay was stopped by the addition of ice-cold acetonitrile (to 80% final concentration), centrifuged for 10 min at 3000 g and the supernatant subsequently analyzed by tandem mass spectrometry as described previously. […] Substrate turnover from two independent reactions were plotted versus controls and Michaelis-Menten kinetics determined using GraphPad Prism version 7 (GraphPad Software, CA, USA).

[6] = target: T3, CYP9Q3; assay: in vitro; conditions: hydroxylation (thiacloprid, imidacloprid) or N-desmethylation (acetamiprid)
Description: as §2
(§4) The total assay volume was 200 μL using three replicates for each data point. Microsomes incubated without NADPH served as a control. The assay was stopped by the addition of ice-cold acetonitrile (to 80% final concentration), centrifuged for 10 min at 3000 g and the supernatant subsequently analyzed by tandem mass spectrometry as described previously. For the chromatography on a Waters Acquity HSS T3 column (2.1x50mm, 1.8μm), acetonitrile/water/0.1% formic acid was used as the eluent in gradient mode. […] The peak integrals were calibrated externally against a standard calibration curve. […] Substrate turnover from two independent reactions were plotted versus controls and Michaelis-Menten kinetics determined using GraphPad Prism version 7 (GraphPad Software, CA, USA).

[7] = target: T4, CYP9Q2 (Apis mellifera, UniProt A0A7M7R6F2); assay: in vitro; conditions: hydroxylation (thiacloprid, imidacloprid) or N-desmethylation (acetamiprid)
T4 sequence (A0A7M7R6F2 1-532): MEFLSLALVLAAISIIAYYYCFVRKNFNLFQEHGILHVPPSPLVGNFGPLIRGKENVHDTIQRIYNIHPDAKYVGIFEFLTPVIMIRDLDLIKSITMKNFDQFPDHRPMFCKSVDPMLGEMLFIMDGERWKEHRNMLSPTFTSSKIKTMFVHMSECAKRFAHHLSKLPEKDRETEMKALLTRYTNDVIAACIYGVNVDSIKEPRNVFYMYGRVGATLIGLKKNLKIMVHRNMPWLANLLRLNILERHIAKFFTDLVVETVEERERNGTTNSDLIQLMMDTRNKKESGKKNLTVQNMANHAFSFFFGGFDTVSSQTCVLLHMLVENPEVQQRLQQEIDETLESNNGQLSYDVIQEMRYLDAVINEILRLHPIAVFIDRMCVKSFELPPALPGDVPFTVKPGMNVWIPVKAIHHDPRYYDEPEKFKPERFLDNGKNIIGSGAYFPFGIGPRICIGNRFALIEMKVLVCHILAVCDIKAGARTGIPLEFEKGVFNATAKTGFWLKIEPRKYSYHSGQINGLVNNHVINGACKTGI
T4 sequence (Q07994 1-671 partner): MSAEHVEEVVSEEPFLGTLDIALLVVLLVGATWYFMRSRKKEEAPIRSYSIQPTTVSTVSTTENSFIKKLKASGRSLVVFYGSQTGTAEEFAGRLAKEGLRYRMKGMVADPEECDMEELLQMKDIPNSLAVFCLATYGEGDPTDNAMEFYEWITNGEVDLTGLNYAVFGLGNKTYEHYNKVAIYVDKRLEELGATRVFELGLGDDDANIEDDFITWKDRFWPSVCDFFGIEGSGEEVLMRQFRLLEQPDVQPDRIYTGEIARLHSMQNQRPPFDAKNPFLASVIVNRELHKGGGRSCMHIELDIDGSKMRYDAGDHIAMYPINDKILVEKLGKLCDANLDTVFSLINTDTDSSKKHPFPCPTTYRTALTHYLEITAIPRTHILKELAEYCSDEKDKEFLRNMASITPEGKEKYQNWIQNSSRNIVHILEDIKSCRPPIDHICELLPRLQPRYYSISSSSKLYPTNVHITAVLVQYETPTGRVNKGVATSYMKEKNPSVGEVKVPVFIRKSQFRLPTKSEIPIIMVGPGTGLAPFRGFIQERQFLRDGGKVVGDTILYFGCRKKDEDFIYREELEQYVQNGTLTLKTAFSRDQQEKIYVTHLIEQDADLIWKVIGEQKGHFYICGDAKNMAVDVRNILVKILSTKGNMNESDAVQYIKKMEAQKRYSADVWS
Description: as §2, §4

[8] = target: T1, CYP9Q1; assay: in vitro; conditions: hydroxylation (thiacloprid, imidacloprid) or N-desmethylation (acetamiprid)
Description: as §2, §4

[9] = tested on: CYP9Q5; assay: Metabolism by recombinant CYP9Q5/CPR microsomes, LC-MS/MS; conditions: hydroxylation (thiacloprid) or N-desmethylation (acetamiprid)
Description: as §2, §3

[10] = tested on: honeybee; conditions: cited from earlier work

T1 sequence (A0A7M7GTV9 entry or part of it, one chain of several): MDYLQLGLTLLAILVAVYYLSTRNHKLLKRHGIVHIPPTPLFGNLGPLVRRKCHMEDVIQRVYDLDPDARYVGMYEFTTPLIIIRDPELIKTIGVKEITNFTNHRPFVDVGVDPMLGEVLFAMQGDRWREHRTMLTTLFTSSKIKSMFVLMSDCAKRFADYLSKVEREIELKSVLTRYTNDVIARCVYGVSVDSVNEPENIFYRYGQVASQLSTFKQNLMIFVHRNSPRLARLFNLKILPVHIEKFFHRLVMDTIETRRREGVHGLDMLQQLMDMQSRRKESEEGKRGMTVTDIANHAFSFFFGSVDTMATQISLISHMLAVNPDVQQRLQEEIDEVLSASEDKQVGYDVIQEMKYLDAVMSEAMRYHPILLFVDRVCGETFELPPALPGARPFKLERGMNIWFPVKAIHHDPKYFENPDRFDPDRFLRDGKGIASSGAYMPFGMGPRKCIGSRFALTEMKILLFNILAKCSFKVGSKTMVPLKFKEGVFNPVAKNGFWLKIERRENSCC

O=c1cc(C(F)(F)F)c2ccc(OCc3ccccc3)cc2o1 [BFC, 7-benzyloxy-4-trifluoromethyl coumarin]
activity against fluorescent coumarin model substrate (in words) [1]: highest specific activity | activity against fluorescent coumarin model substrate (in words) [2]: no activity | activity against fluorescent coumarin model substrate (in words) [3]: no activity | activity against fluorescent coumarin model substrate (in words) [4]: highest specific activity

COc1ccc2c(C(F)(F)F)cc(=O)oc2c1 [MFC, 7-methoxy-4-trifluoromethyl coumarin]
activity against fluorescent coumarin model substrate (in words) [3]: activity

COc1ccc(COc2ccc3c(C(F)(F)F)cc(=O)oc3c2)cc1 [MOBFC, 7-p-methoxy-benzyloxy-4-trifluoro coumarin]
activity against fluorescent coumarin model substrate (in words) [3]: activity

C/C(=N\C#N)N(C)Cc1ccc(Cl)nc1 [acetamiprid]
metabolism by the recombinant P450 (in words) [5]: highest activity | metabolism by the recombinant P450 (in words) [6]: highest activity | metabolism by the recombinant P450 (in words) [7]: highest activity | metabolism by the recombinant P450 (in words) [8]: capacity to metabolize | metabolism by the recombinant P450 (in words) [9]: highest activity

CCCC1COC(Cn2cncn2)(c2ccc(Cl)cc2Cl)O1 (stereo not shown) [propiconazole]
effect of P450 inhibitor on honeybee sensitivity to imidacloprid ([10]; synergist plus imidacloprid): almost no effect | increase of honeybee sensitivity to thiacloprid by P450 inhibitor ([10]; synergist plus thiacloprid): 559 fold
